Patent US12091425B2 (AMGEN INC., priority 2016, dated 2024)

Tests used:
[1] = target: T1, Mcl-1/Bim interaction, recombinant human Mcl-1 (171-327) (Homo sapiens, UniProt Q07820); test: Cell free Mcl-1: Bim Affinity Assay (Mcl-1 HTRF); type: binding; details: TR-FRET, 0.1 nM Mcl-1 (171-327), 0.05 nM biotin-Bim (51-76)
T1 construct: made in house
Procedure, shortened: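 Displacement of biotinylated Bim 51-76 peptide is followed by TR-FRET. Incubation runs overnight. Duplicate points are fitted with a four-parameter sigmoid to yield IC50.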

[2] = tested on: OPM-2 human multiple myeloma cell line; test: Cell Viability Assay (OPM-2 10 FBS); type: cell-based; details: OPM-2 cells, 16 h, CellTiter-Glo
Procedure, shortened: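 Plated at 3000 cells/well in 10% FBS complete medium, the cells received a serial compound dilution series and incubated 16 h at 37 °C with 5% CO2. CellTiter-Glo was then added; IC50 values were fitted with a logistic 4-parameter model.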

T1 sequence (Q07820 171-327): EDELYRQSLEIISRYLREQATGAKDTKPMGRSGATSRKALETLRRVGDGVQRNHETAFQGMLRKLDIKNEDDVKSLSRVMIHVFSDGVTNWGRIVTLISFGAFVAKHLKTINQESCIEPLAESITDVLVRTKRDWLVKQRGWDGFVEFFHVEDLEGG

C[C@@H]1[C@@H](C)C/C=C/[C@H](OCC(=O)N2CCC(O)CC2)[C@@H]2CC[C@H]2CN2C[C@@]3(CCCc4cc(Cl)ccc43)COc3ccc(cc32)C(=O)NS1(=O)=O [Example 312, (1S,3′R,6′R,7′S,8′E,11′S,12′R)-6-chloro-7′-(2-(4-hydroxy-1-piperidinyl)-2-oxoethoxy)-11′,12′-dimethyl-3,4-dihydro-2H,15′H-spiro[naphthalene-1,22′-[20]oxa[13]thia[1,14]diazatetracyclo[14.7.2.0^3,6.0^19,24]pentacosa [8,16,18,24]tetraen]-15′-one 13′,13′-dioxide]
IC50 [1]: 0.153 nM
IC50 ([2]; Homo sapiens, OPM-2, 16 h): 1000 nM

C[C@@H]1[C@@H](C)C/C=C/[C@H](OCC(=O)N2CCOCC2)[C@@H]2CC[C@H]2CN2C[C@@]3(CCCc4cc(Cl)ccc43)COc3ccc(cc32)C(=O)NS1(=O)=O [Example 313, (1S,3′R,6′R,7′S,8′E,11′S,12′R)-6-chloro-11′,12′-dimethyl-7′-(2-(4-morpholinyl)-2-oxoethoxy)-3,4-dihydro-2H,15′H-spiro[naphthalene-1,22′-[20]oxa[13]thia[1,14]diazatetracyclo[14.7.2.0^3,6.0^19,24]pentacos [8,16,18,24]tetraen]-15′-one 13′,13′-dioxide]
IC50 [1]: 0.185 nM
IC50 ([2]; Homo sapiens, OPM-2, 16 h): 220 nM

C[C@@H]1[C@@H](C)C/C=C/[C@H](OCC(=O)N2CCNC(=O)C2)[C@@H]2CC[C@H]2CN2C[C@@]3(CCCc4cc(Cl)ccc43)COc3ccc(cc32)C(=O)NS1(=O)=O [Example 314, (1S,3′R,6′R,7′S,8′E,11′S,12′R)-6-chloro-11′,12′-dimethyl-7′-(2-oxo-2-(3-oxo-1-piperazinyl)ethoxy)-3,4-dihydro-2H,15′H-spiro[naphthalene-1,22′-[20]oxa[13]thia[1,14]diazatetracyclo[14.7.2.0^3,6.0^19,24]pentacosa [8,16,18,24]tetraen]-15′-one 13′,13′-dioxide]
IC50 [1]: 0.136 nM
IC50 ([2]; Homo sapiens, OPM-2, 16 h): 2120 nM

C[C@@H]1[C@@H](C)C/C=C/[C@H](OCC(=O)N2CCC(F)(F)CC2)[C@@H]2CC[C@H]2CN2C[C@@]3(CCCc4cc(Cl)ccc43)COc3ccc(cc32)C(=O)NS1(=O)=O [Example 315, (1S,3′R,6′R,7′S,8′E,11′S,12′R)-6-chloro-7′-(2-(4,4-difluoro-1-piperidinyl)-2-oxoethoxy)-11′,12′-dimethyl-3,4-dihydro-2H,15′H-spiro[naphthalene-1,22′-[20]oxa[13]thia[1,14]diazatetracyclo[14.7.2.0^3,6.0^19,24]pentacosa [8,16,18,24]tetraen]-15′-one 13′,13′-dioxide]
IC50 [1]: 0.774 nM
IC50 ([2]; Homo sapiens, OPM-2, 16 h): 421 nM

C[C@@H]1[C@@H](C)C/C=C/[C@H](OCC(=O)N2CCN(C)CC2)[C@@H]2CC[C@H]2CN2C[C@@]3(CCCc4cc(Cl)ccc43)COc3ccc(cc32)C(=O)NS1(=O)=O [Example 316, (1S,3′R,6′R,7′S,8′E,11′S,12′R)-6-chloro-11′,12′-dimethyl-7′-(2-(4-methyl-1-piperazinyl)-2-oxoethoxy)-3,4-dihydro-2H,15′H-spiro[naphthalene-1,22′-[20]oxa[13]thia[1,14]diazatetracyclo[14.7.2.0^3,6.0^19,24]pentacosa [8,16,18,24]tetraen]-15′-one 13′,13′-dioxide]
IC50 [1]: 0.0986 nM
IC50 ([2]; Homo sapiens, OPM-2, 16 h): 162 nM

C[C@@H]1[C@@H](C)C/C=C/[C@H](OCc2ncccn2)[C@@H]2CC[C@H]2CN2C[C@@]3(CCCc4cc(Cl)ccc43)COc3ccc(cc32)C(=O)NS1(=O)=O [Example 317, (1S,3′R,6′R,7′S,8′E,11′S,12′R)-6-chloro-11′,12′-dimethyl-7′-(2-pyrimidinylmethoxy)-3,4-dihydro-2H,15′H-spiro[naphthalene-1,22′-[20]oxa[13]thia[1,14]diazatetracyclo[14.7.2.0^3,6.0^19,24]pentacosa [8,16,18,24]tetraen]-15′-one 13′,13′-dioxide]
IC50 [1]: 0.223 nM
IC50 ([2]; Homo sapiens, OPM-2, 16 h): 196 nM

O=C1NS(=O)(=O)N2CCC[C@@H]2C/C=C/[C@H](O)[C@@H]2CC[C@H]2CN2C[C@@]3(CCCc4cc(Cl)ccc43)COc3ccc1cc32 [Example 347, (1S,3′R,6′R,7′S,8′E,11R)-6-chloro-7′-hydroxy-3,4-dihydro-2H,18′H-spiro[naphthalene-1,25′-[23]oxa[16]thia[1,15,17]triazapentacyclo[17.7.2.0^3,6.0^11,15.0^22,27]octacosa[8,19,21,27]tetraen]-18′-one 16′,16′-dioxide]
IC50 [1]: 7.22 nM
IC50 [2]: 5550 nM

C[C@@H]1[C@@H](C)C/C=C/C(=O)[C@@H]2CC[C@H]2CN2C[C@@]3(CCCc4cc(Cl)ccc43)COc3ccc(cc32)C(=O)NS1(=O)=O [Example 349, (1S,3′R,6′R,8′E,11′S,12′R)-6-chloro-11′,12′-dimethyl-3,4-dihydro-2H,7′H,15′H-spiro[naphthalene-1,22′-[20]oxa[13]thia[1,14]diazatetracyclo[14.7.2.0^3,6.0^19,24]pentacosa [8,16,18,24]tetraene]-7′,15′-dione 13′,13′-dioxide]
IC50 [1]: 3.83 nM
IC50 ([2]; Homo sapiens, OPM-2, 16 h): 1050 nM

COCCOCCO[C@H]1/C=C/C[C@H](C)[C@@H](C)S(=O)(=O)NC(=O)c2ccc3c(c2)N(C[C@@H]2CC[C@H]21)C[C@@]1(CCCc2cc(Cl)ccc21)CO3 [Example 377, (1S,3′R,6′R,7′S,8′E,11′S,12′R)-6-chloro-7′-(2-(2-methoxyethoxy)ethoxy)-11′,12′-dimethyl-3,4-dihydro-2H,15′H-spiro[naphthalene-1,22′-[20]oxa[13]thia[1,14]diazatetracyclo[14.7.2.0^3,6.0^19,24]pentacosa[8,16,18,24]tetraen]-15′-one 13′,13′-dioxide]
IC50 [1]: 0.303 nM
IC50 ([2]; Homo sapiens, OPM-2, 16 h): 180 nM

COCCOCCOCCO[C@H]1/C=C/C[C@H](C)[C@@H](C)S(=O)(=O)NC(=O)c2ccc3c(c2)N(C[C@@H]2CC[C@H]21)C[C@@]1(CCCc2cc(Cl)ccc21)CO3 [Example 378, (1S,3′R,6′R,7′S,8′E,11′S,12′R)-6-chloro-7′-(2-(2-(2-methoxyethoxy)ethoxy)ethoxy)-11′,12′-dimethyl-3,4-dihydro-2H,15′H-spiro[naphthalene-1,22′-[20]oxa[13]thia[1,14]diazatetracyclo[14.7.2.0^3,6.0^19,24]pentacosa[8,16,18,24]tetraen]-15′-one 13′,13′-dioxide]
IC50 [1]: 0.24 nM
IC50 ([2]; Homo sapiens, OPM-2, 16 h): 140 nM

COCCOCCOCCOCCO[C@H]1/C=C/C[C@H](C)[C@@H](C)S(=O)(=O)NC(=O)c2ccc3c(c2)N(C[C@@H]2CC[C@H]21)C[C@@]1(CCCc2cc(Cl)ccc21)CO3 [Example 379, (1S,3′R,6′R,7′S,8′E,11′S,12′R)-6-chloro-11′,12′-dimethyl-7′-(3,6,9,12-tetraoxatridec-1-yloxy)-3,4-dihydro-2H,15′H-spiro[naphthalene-1,22′-[20]oxa[13]thia[1,14]diazatetracyclo[14.7.2.0^3,6.0^19,24]pentacosa[8,16,18,24]tetraen]-15′-one 13′,13′-dioxide]
IC50 [1]: 0.211 nM
IC50 ([2]; Homo sapiens, OPM-2, 16 h): 128 nM

CC1CC=CC(OCC(C)N2CCOCC2)C2CCC2CN2CC3(CCCc4cc(Cl)ccc43)COc3ccc(cc32)C(=O)NS(=O)(=O)C1CC1CC1 (stereo not drawn) [Example 387]
IC50 [1]: 1.65 nM
IC50 ([2]; Homo sapiens, OPM-2, 16 h): 1250 nM
